Read-outs that look alike come from different tables or passages of the source.
What was measured:
[1] = test system: TNF-α induced IL-6; assay: TNF-α-induced IL-6 production determined by IL-6 ELISA; format: cell-based; conditions: for % IL6 production compare to TNF stimulation of IL6 (100%), HAEC, IL6, @ 5 uM / % IL6 production compare to TNF stimulation of IL6 (100%), Compds tested @ 10 uM HAEC, IL6: TNF stimulated; for % IL6 production compare to TNF stimulation of IL6 (100%), HAEC, IL6, @ 5 uM: compound 5 uM (bracketed value); for % IL6 production compare to TNF stimulation of IL6 (100%), Compds tested @ 10 uM HAEC, IL6: compound 10 uM
Procedure, shortened: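 Human aortic endothelial cells grown to ≥90% confluence, then treated with compounds and stimuli in serum-free medium with 0.2% albumin. Secreted IL-6 in collected media measured by sandwich ELISA (2 ug/ml capture, 200 ng/ml biotinylated detection antibody, streptavidin-HRP), read at 450 nm.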

[2] = test system: Human aortic smooth muscle cells; conditions: 24 h
Protocol: Human aortic smooth muscle cells (Clonetics) were used. Cells were grown in basal medium containing 5% fetal bovine serum supplemented with growth factors, basic fibroblast growth factor, epidermal growth factor and insulin. […] The cells were then serum starved for 24 h to induce quiescence. Fresh growth medium containing no compound or 10 μM compound was then added and further incubated for 24 h. Cell number was determined by using a cell proliferation assay kit (Celltiter96 AQueous from Promega).

[3] = test system: G-HSA induced IL-6; assay: AGE-induced inflammatory response determined by IL-6 ELISA (glycated human serum albumin stimulus); format: cell-based; conditions: 24 h, read-out: % IL6 production compare to AGE stimulation of IL6 (100%), Compds tested @ 10 uM HAEC, IL6
Protocol: Human aortic endothelial cells (HAEC, Clonetics) were cultured according to manufacturer in growth medium (Clonetics): basal medium containing human epidermal growth factor, hydrocortisone, vascular endothelial growth factor, heparin binding growth factor-B, long R3-insulin-like growth factor-1, ascorbic acid, gentamicin/amphotericin and 5% FBS. These cell were allowed to reach at least 90% confluency before subjected to experimental treatments. Glycated human serum albumin (G-HSA) was from US Biologicals. Tumor necrosis factor α was from R&D Systems.
Endothelial cells were treated with control medium or medium containing 10 to 100 ng/ml TNF-α or 300 μg/ml glycated-HAS (treated cells or treatments) for 24 hrs, in control and compound-added duplicates, containing 10 μM compound. All treatments, compound-added and controls were carried out in serum free media containing 0.2% albumin. Media from all conditions were collected and used for IL-6 ELISA.
IL-6 ELISA was carried out using human IL-6 DuoSet ELISA development kit as described by manufacturer (R&D Systems). Mouse anti-human Il-6 was used as the capture antibody (2 ug/ml) and biotinylated goat anti-human IL-6 (200 ng/ml) was used as the detection antibody. Culture media were incubated with capture antibody (in 96 well) for 2 h at room temperature. […] Color development was read at 450 nm in a Microplate reader.

[4] = test system: cells; assay: Cytotoxicity/Lactate Dehydrogenase assay; format: cell-based; conditions: toxic or cause cell death; concentrations (uM) given
Protocol: An appropriate number of cells are plated in four 96-well plates, one plate for “day 0” and three plates for days 1-3. Cells are treated with at least one compound of the present invention in varying concentrations with and without the apoptosis inducer cisplatin (2 μM) (“+cis” or “-cis”). Unteated cells are also assayed with and without cisplatin. After transfection, the plates are incubated at 37° C. overnight.
An appropriate number of cells are plated in four 96-well plates, one plate for “day 0” and three plates for days 1-3. Cells are treated with at least one compound of the present invention in varying concentrations. The negative control cells have normal media conditions, a duplicate set of wells is treated with the composition in which the compound is provided, but there is no added compound and the positive control cells are treated with the apoptosis inducer cisplatin (2 μM). All of the cells are transfected with a vector having a promoter that is responsive to apoptosis conditions. When apoptosis occurs, the promoter is turned on and the lactic dehydrogenase gene is activated and the enzyme protein is made and active. Activity is easily detected with a color change. After transfection, the plates are incubated at 37° C. overnight.
About 8 mls of warmed alpha MEM LDH lysis buffer (2% Triton X100) and about 8 mls of culture media (1/2 dilution) are combined. Two 96-well v-bottom plates are prepared, one labeled “lysis” and one labeled “supernatant.” To lyse the cells, about 200 μl Alpha MEM lysis buffer (diluted 1/2) is added to one test plate from which the supernatant has been removed and added to the plate labeled supernatant. After mixing, about 200 μl of lysed cells are transferred to the lysis plate. Both the lysis and supernatant plates are centrifuged at about 1600 rpm for about 10 min. After centrifugation, about 100 μl of both the supernatant or lysate is transferred to corresponding 96-well flat-bottomed plates.
The assay for cytotoxicity uses the Cytotoxicity Detection Kit (LDH) from Roche Diagnostics Corp. (Indianapolis, Ind.). Using the directions provided, the dye solution is mixed and added each well of the lysate and supernatant plate and incubated for up to 20-25 min at 15-25° C. in the dark.

[5] = test system: endothelial cells; assay: Toxicity to endothelial cells when AGE stimulated; format: cell-based
Protocol: In general, to determine if there is cytotoxic activity associated with a compound, cells of a particular type, in a growing stage or a quiescient stage, are treated with the compound of interest. Various parameters of cell death or cessation are used to measure the effects of the compound. For example, the amount of nucleic acid or protein synthesis can be measured or visual observation of the state of the cells, such as release from the substrate, can be used to measure the state of the cells.
All treatments, compound-added and controls were carried out in serum free media containing 0.2% albumin. Media from all conditions were collected and used for IL-6 ELISA.

For `CN1CCC(N(C)c2nc(Nc3ccc(OCc4ccccc4)c(Cl)c3)nc(NC3CCCCCC3)n2)CC1`, the “Inflammation Data, activity in words at 1 uM” value [1] was “Not active”, the “Inflammation Data, activity in words at 5 uM” value ([1]; 5 uM) was “Not active” and the “Inflammation Data, cell death at 5 uM” value ([1]; 5 uM) was 30%. For the same compound, the “Inflammation Data, cell death at 10 uM” value ([1]; 10 uM) was “totaldeath”, the “Proliferation Data, cell death” value [2] was “no celldeath” and the “Proliferation Data, cell morphology (rounding, blunting, morphology change)” value [2] was “cell morphologychange at 5 & 10 uM”.
`CN(c1nc(Nc2ccc(OCc3ccccc3)c(Cl)c2)nc(NC2CCCCCC2)n1)C1CCNCC1` was tested, and the “Inflammation Data, activity in words at 1 uM” value [1] was “not active”, the “Inflammation Data, cell death at 5 uM” value ([1]; 5 uM) was 50% and the “Inflammation Data, cell death at 10 uM” value ([1]; 10 uM) was “total cell death”. The “Proliferation Data, cell death” value [2] was “celldeath at 10 uM” and the “Proliferation Data, cell morphology (rounding, blunting, morphology change)” value [2] was “cell morphologychange at 7.5 uM”.
With `CCN1CCCC1CNc1nc(Nc2scc(C)c2C(N)=O)nc(NC2CCCCCC2)n1` (stereo not shown) [Compound 39, 2-[(4-(cycloheptylamino)-6-{[(1-ethyl-2-pyrrolidinyl)methyl]amino}-1,3,5-triazin-2-yl)-amino]-4-methyl-3-thiophenecarboxamide] the activity at 10 µM ([1]; Homo sapiens, 24 h, Table 5, second part, column 1, class = % of control IL6 production, read-out: Inhibition of TNF-induced IL6, production) was 25 to 50% and the activity at 10 µM ([3]; HAEC, 10 uM compound, AGE stimulation = 100%) was 26%.
`COc1ccc(Nc2nc(Nc3ccc(OC)c(Cl)c3)nc(N(C)C3CCN(C)CC3)n2)cc1Cl` [Compound 121, N,N′-Bis-(3-chloro-4-methoxy-phenyl)-N″-methyl-N″-(1-methyl-piperidin-4-yl)-[1,3,5]triazine-2,4,6-triamine] was tested, and the Toxicity [4] was “Toxic by toxicityassay at 0.75 uM.Starts blunting by1 uM and rounding by5 uM”, the “% IL6 production compare to TNF stimulation of IL6 (100%), HAEC, IL6, @ 5 uM” value (“% IL6 production compare … @ 5 uM” below) [1] was “[50 @ 5 uM, but some %” and the “% IL6 production compare to TNF stimulation of IL6 (100%), Compds tested @ 10 uM HAEC, IL6” value [1] was “total cell death @ 10 uM”. For the same compound, the “toxicity @ 5 uM” value ([1]; human, 24 h, 5 µM) was “toxicity (~20%)]” and the “Toxic (AGE-treated)” value [5] was “toxic”.
`COc1ccc(Nc2nc(NC3CCCCCC3)nc(NC3CCNCC3)n2)cc1Cl` [Compound 135, N^2-(3-chloro-4-methoxy-phenyl)-N^4-cycloheptyl-N^6-piperidin-4-yl-1,3,5-triazine-2,4,6-triamine] was tested, and the “% IL6 production compare … @ 5 uM” value [1] was 60%, the “% IL6 production compare to TNF stimulation of IL6 (100%), Compds tested @ 10 uM HAEC, IL6” value [1] was “total cell death” and the “Toxic (AGE-treated)” value ([5]; endothelial cells, AGE stimulated) was “toxic”.
In the case of `CN1CCC(N(C)c2nc(Nc3ccc(O)c(Cl)c3)nc(NC3CCCCCC3)n2)CC1` [Compound 138, 2-Chloro-4-{4-cycloheptylamino-6-[methyl-(1-methyl-piperidin-4-yl)-amino]-[1,3,5]triazin-2-ylamino}-phenol], the “% IL6 production compare to TNF stimulation of IL6 (100%), Compds tested @ 10 uM HAEC, IL6” value [1] is reported as “toxic” and the “Toxic (AGE-treated)” value [5] is reported as “toxic”.
`CCN1CCCC1CNc1nc(Nc2ccc(OC)c(Cl)c2)nc(NC2CN3CCC2CC3)n1` (stereo not shown) [Compound 148, N-(1-Aza-bicyclo[2.2.2]oct-3-yl)-N′-(3-chloro-4-methoxy-phenyl)-N″-(1-ethyl-pyrrolidin-2-ylmethyl)-[1,3,5]triazine-2,4,6-triamine] was tested, and the “% IL6 production compare … @ 5 uM” value [1] was 60%, the “% IL6 production compare to TNF stimulation of IL6 (100%), Compds tested @ 10 uM HAEC, IL6” value [1] was “total cell death” and the “Toxic (AGE-treated)” value [5] was “toxic”.
`COc1ccc(Nc2nc(NC3CCCCCC3)nc(N(C)C3CCNCC3)n2)cc1F` [Compound 159, N^2-Cycloheptyl-N^4-(3-fluoro-4-methoxy-phenyl)-N^6-methyl-N^6-piperidin-4-yl-1,3,5-triazine-2,4,6-triamine] was tested, and the “% IL6 production compare … @ 5 uM” value [1] was “total cell death @ 5 and 10”, the “% IL6 production compare to TNF stimulation of IL6 (100%), Compds tested @ 10 uM HAEC, IL6” value [1] was “total cell death @ 5 and 10” and the “Toxic (AGE-treated)” value [5] was “toxic”.
Work on `CN1CCC(N(C)c2nc(Nc3ccc4ccccc4c3)nc(NC3CC3)n2)CC1` [Compound 180, N-Cyclopropyl-N′-methyl-N′-(1-methyl-piperidin-4-yl)-N″-naphthalen-2-yl-[1,3,5]tri-azine-2,4,6-triamine] yielded an inhibition at 10 µM ([1]; Homo sapiens, 24 h, read-out: Inhibition of TNF-induced IL6 production, Table 7, first part) of 85 to 100%, an inhibition at 10 µM ([1]; Homo sapiens, 24 h, read-out: Inhibition of TNF-induced IL6 production, Table 7, second part, column 1) of 50 to 65% and an activity at 10 µM [3] of 5%.
In the case of `CN1CCC(N(C)c2nc(Nc3ccc(O)c(Cl)c3)nc(NC3CCCCCC3)n2)CC1` [drawing 1613], the “Inflammation Data, cell death at 10 uM” value ([1]; human, 24 h, 10 µM) is reported as “total cell death” and the “Proliferation Data, cell morphology (rounding, blunting, morphology change)” value [2] is reported as “cell bluntingat 3 to 10 uM”.

Source: patent US7332489B2, “Methods and compositions of novel triazine compounds” (Reddy US Therapeutics, Inc., priority 2003, dated 2008)
